In article PMC12507699, “SLC45A4 is a pain gene encoding a neuronal polyamine transporter” (Nature, 2025):

How the values were obtained:
SLC45A4 [1] = biological target: T1, SLC45A4 (Homo sapiens, UniProt Q5BKX6); experiment: competition of […]-SPD uptake in Neuro-2A cells overexpressing SLC45A4; also nanoDSF on purified protein; type: cell-based; parameters: full-length human SLC45A4
T1 sequence (Q5BKX6 1-768): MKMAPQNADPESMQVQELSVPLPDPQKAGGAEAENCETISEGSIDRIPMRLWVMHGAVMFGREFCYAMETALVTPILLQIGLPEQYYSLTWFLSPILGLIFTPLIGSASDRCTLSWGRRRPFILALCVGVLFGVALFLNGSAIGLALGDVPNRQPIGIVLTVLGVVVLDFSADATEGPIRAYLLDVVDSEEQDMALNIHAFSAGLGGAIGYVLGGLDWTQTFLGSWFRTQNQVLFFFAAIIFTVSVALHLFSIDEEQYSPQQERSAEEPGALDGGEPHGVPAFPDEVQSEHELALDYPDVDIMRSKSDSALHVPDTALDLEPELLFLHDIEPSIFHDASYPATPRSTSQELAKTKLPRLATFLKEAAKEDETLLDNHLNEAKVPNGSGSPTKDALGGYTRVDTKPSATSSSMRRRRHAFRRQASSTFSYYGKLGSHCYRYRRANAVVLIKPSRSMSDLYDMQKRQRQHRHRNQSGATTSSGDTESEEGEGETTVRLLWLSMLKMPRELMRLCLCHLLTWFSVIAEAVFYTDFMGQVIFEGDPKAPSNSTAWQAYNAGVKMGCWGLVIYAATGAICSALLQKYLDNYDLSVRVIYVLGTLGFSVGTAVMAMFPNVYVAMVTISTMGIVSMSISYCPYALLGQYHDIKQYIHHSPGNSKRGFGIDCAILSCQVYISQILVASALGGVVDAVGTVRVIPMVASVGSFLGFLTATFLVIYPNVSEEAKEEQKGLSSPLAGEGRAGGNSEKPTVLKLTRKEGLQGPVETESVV

SLC45A4 [2] = biological target: T1, SLC45A4; experiment: […]-SPD uptake and homologous competition in Neuro-2A cells overexpressing SLC45A4; also nanoDSF destabilization of purified protein in detergent and nanodiscs; type: cell-based; parameters: full-length human SLC45A4
SLC45A4 [3] = biological target: T1, SLC45A4; experiment: cell-based

Structure (SMILES)	IC50 (SLC45A4 [1]) [µM]	further results
NCCCCCN [Cad, cadaverine]	67	
NCCCCN [Put, putrescine]	74	
NCCCCNCCCN [SPD, spermidine]		IC50 (SLC45A4 [2]): 123 µM
NCCCNCCCCNCCCN [Spm, spermine]		IC50 (SLC45A4 [3]): 240 µM
